From patent US20030027981A1, “Urokinase-type plasminogen activator receptor” (priority 1989, published 2003)

B1: PAI-2: human type-2 plasminogen activator inhibitor purified from U937 cells (protein, UniProt P05120 1-415, looked up)
Plasminogen activator …: MEDLCVANTLFALNLFKHLAKASPTQNLFLSPWSISSTMAMVYMGSRGSTEDQMAKVLQFNEVGANAVTPMTPENFTSCGFMQQIQKGSYPDAILQAQAADKIHSSFRSLSSAINASTGNYLLESVNKLFGEKSASFREEYIRLCQKYYSSEPQAVDFLECAEEARKKINSWVKTQTKGKIPNLLPEGSVDGDTRMVLVNAVYFKGKWKTPFEKKLNGLYPFRVNSAQRTPVQMMYLREKLNIGYIEDLKAQILELPYAGDVSMFLLLPDEIADVSTGLELLESEITYDKLNKWTSKDKMAEDEVEVYIPQFKLEEHYELRSILRSMGMEDAFNKGRANFSGMSERNDLFLSEVFHQAMVDVNEEGTEAAAGTGGVMTGRTGHGGPQFVADHPFLFLIMHKITNCILFFGRFSSP

Test system: HT-1080 cells
Experiment: Formation of cell-bound plasmin on HT-1080 cells in serum culture (tranexamic acid eluate, thioesterase assay)
Format: cell-based, human
Details: for Bound plasmin activity: 2 h, serum medium, all with Plg 40 μg/ml, aprotinin, anti-Plg-1, TA (100 μM) also with anti-PAI-1 10 μg/ml; for activity at 10 µM / activity at 100 µM: Homo sapiens, HT-1080; for activity at 10 µM: Plg 40 μg/ml + TA 10 μM; for activity at 100 µM: Plg 40 μg/ml + TA 100 μM
Method: Human fibrosarcoma cells (HT-1080, CCL 121) were obtained from the American Type Culture Collection, Rockville, Md. Confluent cell layers were grown in plastic Linbro wells (2 cm^2; Flow Laboratories) in Eagle's minimal essential medium (MEM) supplemented with 10% heat-inactivated (56° C. for 60 minutes) fetal calf serum (Gibco), 100 IU/ml penicillin and 50 μg/ml streptomycin. After reaching confluence, the cells were rinsed three times with MEM containing 0.2% bovine serum albumin (BSA), then changed to either serum-free medium (0.5 ml) or medium containing 10% heat-inactivated and plasminogen-depleted (i.e. absorbed with lysine-Sepharose; Pharmacia, Uppsala, Sweden) fetal calf serum as indicated in the Examples.
Human plasminogen (with glutamic acid N-terminal) was prepared by affinity chromatography on lysine-Sepharose (Deutsch, D. G., and E. T. Mertz, “Plasminogen: Purification from human plasma by affinity chromatography”, Science 170: 1095-1097, 1970) from freshly separated, unfrozen human plasma pretreated with 10 μM p-nitrophenyl guanidinobenzoate, 1 mM phenylmethylsulfonylfluoride and 0.1 μg/ml of an anti-catalytic murine monoclonal IgG antibody to human t-PA (ESP-2; see MacGregor, I. R. et al., “Characterization of epitopes on human tissue plasminogen activator recognised by a group of monoclonal antibodies”, Thromb. Haem. 53: 45-50, 1985); American Diagnostica, Greenwich, Conn.).
Res. 46: 755-766, 1987) titration equivalent of 3.6 IU u-PA/ml; an anti-catalytic murine monoclonal IgG antibody to human u-PA (clone 2 (10 μg/ml) in Nielsen, L. S. et al., “Enzyme-linked immunosorbent assay for human urokinase-type plasminogen activators and its proenzyme using a combination of monoclonal and polyclonal antibodies”, J. Immunoassay 7: 209-228, 1986); the anti-catalytic monoclonal antibody to human t-PA (10 μg/ml); a neutralising murine monoclonal IgG antibody to human PAI-1 (Nielsen, L. S. et al., “Monoclonal antibodies to human 54,000 molecular weight plasminogen activator inhibitor from fibrosarcoma cells—inhibitor neutralization and one-step affinity purification”, Thromb. Haem. 55: 206-212, 1986) (10 μg/ml) and diisopropyl fluorophosphate (DFP)-inactivated u-PA (0-10 μg/ml).
The plasmin activity of culture supernatant samples (50 μl) was assayed directly by incubation with the thioester substrate solution above (200 μl) for 30 minutes (serum-free supernatants) or 3 hours (serum-containing supernatants) at 37° C. An estimate of the amount of active plasmin present was made from calibration curves using human plasmin dilutions in serum-free medium covering the appropriate ranges of activity.
Plasmin bound to the cell layer was recovered and assayed as follows. After harvest of culture medium, the cells were rinsed three times with PBS (plasmin assays of further rinses were negative); then the bound plasmin was specifically eluted (Miles, L. A., and E. F. Plow, “Binding and activation of plasminogen on the platelet surface”, J. Biol. Chem. 260: 4303-4311, 1985) with a solution of 1 mM tranexamic acid in the same rinsing solution (150 μl/well). Plasmin activity was assayed in eluate samples (50 μl) as above with an incubation time of 3 hours at 37° C. Tranexamic acid at 1 mM had no effect on the thioesterase activity of plasmin in these assays.
The following additions were made to cell layers growing in MEM medium (0.5 ml) containing 10% heat-inactivated and plasminogen-depleted fetal calf serum: native human plasminogen (Plg, 40 μg/ml); anti-catalytic monoclonal antibody to human u-PA (10 μg/ml); anti-catalytic monoclonal antibody to human t-PA (10 μg/ml); PAI-2 (titration equivalent of 3.6 UI u-PA/ml); anti-catalytic monoclonal antibody to human plasmin (20 μg/ml); aprotinin (200 KIU/ml); tranexamic acid (TA, as shown). The cultures were incubated for the times shown before assay of cell-bound plasmin. The incubation with plasminogen was used as the 100% control for bound plasmin. […]

[1] = 3 h, serum medium with Plg 40 μg/ml (=100%), anti-u-PA 10 μg/ml, anti-t-PA 10 μg/ml, PAI-2 equiv. 3.6 IU u-PA/ml, aprotinin 200 KIU/ml, anti-Plg-1 20 μg/ml
[2] = 17 h, serum medium with Plg 40 μg/ml (=100%), additions as b555

Molecule	Bound plasmin activity	activity at 10 µM (3 h)	activity at 100 µM (3 h)	activity at 10 µM (17 h)	activity at 100 µM (17 h)	Plasmin recovered from the cell layer (40 μg/ml human plasminogen in 0.5 ml serum medium, 2 cm^2 cell layer, 3 hours 37° C.)	Plasmin measurable in the medium (40 μg/ml human plasminogen in 0.5 ml serum medium, 3 hours 37° C.)	Bound plasmin activity (%) [1]	Bound plasmin activity (%) [2]	Bound plasmin activity (%) (cells preincubated 1 h with inhibitor (anti-u-PA 10 μg/ml, PAI-2 equiv. 3.6 IU u-PA/ml), rinsed, then 3 h with Plg 40 μg/ml in serum medium)
NC[C@H]1CC[C@H](C(=O)O)CC1 [TA, tranexamic acid]	0 ng	9.7%	2.2%	34%	13%	–	–	–	–	–
Plg: native human plasminogen (glutamic acid N-terminal) purified from human plasma on lysine-Sepharose	12 ng	–	–	–	–	28 ng	10 ng	100%	100%	–
aprotinin	3.3 ng	–	–	–	–	–	–	13.2%	7.8%	–
B1	–	–	–	–	–	–	–	48%	19%	54%
